Data set [1] has as its system JAK-STAT signalling in HeLa cells. Description: JAK-STAT signalling assay (OSM-triggered pSTAT1(2)-luciferase reporter in HeLa cells). Type of data set: cell-based. Particulars: Homo sapiens; HeLa cells, OSM-triggered pSTAT1(2)-luciferase reporter; read-out: STAT signalling EC50. In outline:
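Read-out is oncostatin M–driven pSTAT1(2)-luciferase activity, corrected by co-transfected LacZ β-galactosidase, in transiently transfected HeLa cells cultured overnight at 37 °C, 10% CO2. Inhibition percentages against positive and negative controls were plotted across doses to derive EC50.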
(In a reporter assay the amount or activity of a reporter protein is the signal.)

The next data set deals with MMP13 in SW1353 cells. Briefly: OSM/IL-1β signaling assay (MMP13 levels in SW1353 cells).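 Further: secreted MMP13 captured by antibody, activated with APMA and its activity read by fluorescence, inhibition scaled between vehicle-treated triggered wells (0%) and untriggered wells (100%).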 Particulars: Homo sapiens; SW1353 cells, OSM and IL-1β triggered, MMP13 levels 48 hours after triggering; read-out: MMP13 EC50. It is filed as cell-based.
The subject of data set [2] is Collagen Induced Arthritis (CIA). Description: Rat CIA model. Type of data set: in vivo. Particulars: therapeutic dosing day 16 to day 30, p.o., statistical significance in several of the readouts. As for the experimental part:
Completed Freund's adjuvant (CFA) and incomplete Freund's adjuvant (IFA) were purchased from Difco. Bovine collagen type II (CII), lipopolysaccharide (LPS), and Enbrel were obtained from Chondrex (Isle d'Abeau, France); Sigma (P4252, L'Isle d'Abeau, France), Whyett (25 mg injectable syringe, France) Acros Organics (Palo Alto, Calif.), respectively. All other reagents used were of reagent grade and all solvents were of analytical grade.
Dark Agouti rats (male, 7-8 weeks old) were obtained from Harlan Laboratories (Maison-Alfort, France). Rats were kept on a 12 hours light/dark cycle (0700-1900). The temperature was maintained at 22° C., and food and water were provided ad libitum.
One day before the experiment, CII solution (2 mg/mL) was prepared with 0.05 M acetic acid and stored at 4° C. Just before the immunization, equal volumes of adjuvant (IFA) and CII were mixed by a homogenizer in a pre-cooled glass bottle in an ice water bath. Extra adjuvant and prolonged homogenization might be required if an emulsion is not formed. 0.2 mL of the emulsion was injected intradermally at the base of the tail of each rat on day 1, a second booster intradermal injection (CII solution at 2 mg/mL in CFA 0.1 mL saline) was performed on day 9. This immunization method was modified from published methods (Sims N A et al., (2004) Targeting osteoclasts with zoledronic acid prevents bone destruction in collagen-induced arthritis, Arthritis Rheum. 50 2338-2346; Jou et al., 2005).
The therapeutic effects of the test compounds were tested in the rat CIA model. Rats were randomly divided into equal groups and each group contained 10 rats. All rats were immunized on day 1 and boosted on day 9. Therapeutic dosing lasted from day 16 to day 30. The negative control group was treated with vehicle (MC 0.5%) and the positive control group with Enbrel (10 mg/kg, 3× week, s.c.). A compound of interest was typically tested at 3 doses, e.g. 3, 10, 30 mg/kg, p.o.
Arthritis was scored according the method of Khachigian 2006, Lin et al 2007 and Nishida et al. 2004. The swelling of each of the four paws was ranked with the arthritic score as follows: 0-no symptoms; 1-mild, but definite redness and swelling of one type of joint such as the ankle or wrist, or apparent redness and swelling limited to individual digits, regardless of the number of affected digits; 2-moderate redness and swelling of two or more types of joints; 3-severe redness and swelling of the entire paw including digits; 4-maximally inflamed limb with involvement of multiple joints (maximum cumulative clinical arthritis score 16 per animal) (Nishida et al., 2004).
Clinically, body weight loss is associated with arthritis (Shelton et al., 2005; Argiles et al., 1998; Rall, 2004; Walsmith et al., 2004). […] The change in body weight (%) after onset of arthritis was calculated as follows: […]
X-ray photos were taken of the hind paws of each individual animal. A random blind identity number was assigned to each of the photos, and the severity of bone erosion was ranked by two independent scorers with the radiological Larsen's score system as follows: 0-normal with intact bony outlines and normal joint space; 1—slight abnormality with any one or two of the exterior metatarsal bones showing slight bone erosion; 2—definite early abnormality with any three to five of the exterior metatarsal bones showing bone erosion; 3—medium destructive abnormality with all the exterior metatarsal bones as well as any one or two of the interior metatarsal bones showing definite bone erosions; 4—severe destructive abnormality with all the metatarsal bones showing definite bone erosion and at least one of the inner metatarsal joints completely eroded leaving some bony joint outlines partly preserved; 5—mutilating abnormality without bony outlines. This scoring system is a modification from Salvcmini et al., 2001; Bush et al., 2002; Sims et al., 2004; Jou et al., 2005. […]

The nature of data set [3]: Caco2 permeability (bi-directional). Type of data set: in vitro ADME, human. The settings on record: human, pH 7.4; for Papp A→B at 1 h, 10 µM: Caco-2, apical to basolateral, read-out: Papp (A2B); for efflux ratio at 1 h, 10 µM: Caco-2, ratio of PappB>A/PappA>B. In outline: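 Compound concentrations in both chambers were measured by LC-MS/MS after 1 h incubation at 37 °C on an orbital shaker. Efflux ratio is PappB>A over PappA>B. Lucifer Yellow (50 μM in donor) confirmed layer integrity, with permeability of ≤100 nm/s required.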

Method for MMP13 in SW1353 cells: The cells were seeded in 96 well plates at 15,000 cells/well in a volume of 120 μL DMEM (Invitrogen) containing 10% (v/v) FBS and 1% penicillin/streptomycin (InVitrogen) incubated at 37° C. […] MMP13 activity was measured using an antibody capture activity assay. […] Next the wells were washed twice with PBS+0.05% Tween followed by MMP13 activation by addition of 35 μL of a 1.5 mM 4-Aminophenylmercuric acetate (APMA) (Sigma, A9563) solution and incubation at 37° C. for 1 hour. […] Percentage inhibition=((fluorescence determined in the presence of vehicle−fluorescence determined for sample with test compound present) divided by (fluorescence determined in the presence of vehicle−fluorescence determined for sample without trigger))*100%.

Broadly, the EC50 is the concentration at which the effect is half-maximal. As to `O=C(Nc1nc2cccc(-c3ccc(CN4CCOCC4)cc3)n2n1)C1CC1` [Compound 18, N-(5-(4-(morpholinomethyl)phenyl)-[1,2,4]triazolo[1,5-a]pyridin-2-yl)cyclopropanecarboxamide], the half-maximal effective concentration (EC50) (in data set [1]; in the data set with MMP13 in SW1353 cells) was greater than 1000 nM in each case. Further, the “efficacy in all readouts of the rat CIA study” value (“efficacy in all readouts” for short) in data set [2] is “efficacious in all readouts”.

A word on the efflux ratio: it is a quotient of directional permeabilities that is used to spot active efflux. Take `CC1CCCN(C(=O)c2ccc(-c3cccc4nc(NC(=O)C5CC5)nn34)cc2)C1` (stereo not shown) [Compound 145, N-(5-(4-(3-methylpiperidine-1-carbonyl)phenyl)-[1,2,4]triazolo[1,5-a]pyridin-2-yl)cyclopropanecarboxamide]: the EC50 is 501 to 1000 nM in data set [1] and greater than 1000 nM with MMP13 in SW1353 cells. In data set [2], the “efficacy in all readouts” value is “efficacious in all readouts”. The Papp A→B at 1 h, 10 µM in data set [3] was determined as 14.7 ×10⁻⁶ cm/s. Besides, the efflux ratio at 1 h, 10 µM in data set [3] was determined as 2.

With `N#Cc1ccc(COc2ccc(-c3cccc4nc(NC(=O)C5CC5)nn34)cc2)cn1` [Compound 176, N-(5-(4-((6-cyanopyridin-3-yl)methoxy)phenyl)-[1,2,4]triazolo[1,5-a]pyridin-2-yl)cyclopropanecarboxamide], the EC50 in data set [1] lay in the range of 101 to 500 nM; in the data set on MMP13 in SW1353 cells, 1 to 500 nM. Further, the “efficacy in all readouts” value in data set [2] is given as “efficacious in all readouts”. Further, the efflux ratio at 1 h, 10 µM in data set [3] turned out to be 0.8.

Turning to `CC1CN(C(=O)c2ccc(-c3cccc4nc(NC(=O)C5CC5)nn34)cc2)CC(C)O1` (stereo not shown) [Compound 215, Cyclopropanecarboxylic acid {5-[4-(2,6-dimethyl-morpholine-4-carbonyl)-phenyl]-[1,2,4]triazolo[1,5-a]pyridin-2-yl}-amide], the concentration giving a half-maximal response (EC50) in data set [1] was 101 to 500 nM; in the data set with MMP13 in SW1353 cells it was greater than 1000 nM. In addition, in data set [2], the “efficacy in all readouts” value is on record as “efficacious in all readouts”. For the same compound, the Papp A→B at 1 h, 10 µM in data set [3] is 6.05 ×10⁻⁶ cm/s. In addition, the efflux ratio at 1 h, 10 µM in data set [3] turned out to be 9.3.

Regarding `CC1(C)CN(C(=O)c2ccc(-c3cccc4nc(NC(=O)C5CC5)nn34)cc2)C1` [Compound 330, Cyclopropanecarboxylic acid (5-[4-(3,3-dimethyl-azetidine-1-carbonyl)-phenyl]-[1,2,4]triazolo[1,5-a]pyridin-2-yl}-amide], in data set [1], the EC50 was in the range of 1 to 100 nM. For the same compound, the EC50 with MMP13 in SW1353 cells lay in the range of 501 to 1000 nM. Further, in data set [2], the “efficacy in all readouts” value was “efficacious in all readouts”. Moreover, in data set [3], the Papp A→B at 1 h, 10 µM amounted to 6.5 ×10⁻⁶ cm/s and the efflux ratio at 1 h, 10 µM turned out to be 5.5.

The values above are taken from patent publication US10206907B2, “Compounds useful for the treatment of degenerative and inflammatory diseases” (GALAPAGOS NV, priority 2008, dated 2019).
